Data: US11339161B2, “Triazolo pyridines as modulators of gamma-secretase” (Boehringer Ingelheim International GmbH, priority 2017, dated 2022)
Where two headings read alike, the source gives them in different places.

Tests used:
Aβ42 production = experiment: Inhibition of Aβ42 production in H4 neuroglioma cells stably expressing human APP695 (MSD electrochemiluminescence); format: cell-based; conditions: for modulation of γ-secretase (in words): tables 4a/4b
Protocol: Cells were plated out to near confluency. The compounds to be tested were received as 10 mM stocks in 100% DMSO. A dilution series was initially generated in 100% DMSO and then diluted 200-fold in cell culture media such that the tested concentration range was 30 μM to 0.1 nM and the final DMSO concentration was 0.5%. The diluted compounds were incubated with the cells for 22 hours in an incubator at 37° C. and 5% CO2. Aβ42 levels were measured post-incubation from the supernatant of the cells using an Aβ42 specific electrochemiluminescence assay provided by Meso Scale Discovery (Catalog #L21CA-1). The measurement of Aβ42 levels were performed according to the manufacturer's protocol.

ABL1 = ABL1 (Homo sapiens, UniProt P00519); experiment: Z'-LYTE SelectScreen biochemical kinase assay ABL1
Description: (§1) Thermo Fisher Scientific SelectScreen™ Biochemical Kinase Profiling Service Z′-LYTE™ Screening Protocol and Assay Conditions Assay Theory
(§2) The […] biochemical assay employs a fluorescence-based, coupled-enzyme format and is based on the differential sensitivity of phosphorylated and non-phosphorylated peptides to proteolytic cleavage. The peptide substrate is labeled with two fluorophores—one at each end—that make up a FRET pair. In the primary reaction, the kinase transfers the gamma-phosphate of ATP to a single tyrosine, serine or threonine residue in a synthetic FRET-peptide. In the secondary reaction, a site-specific protease recognizes and cleaves non-phosphorylated FRET-peptides. Phosphorylation of FRET-peptides suppresses cleavage by the Development Reagent. Cleavage disrupts FRET between the donor (i.e., coumarin) and acceptor (i.e., fluorescein) fluorophores on the FRET-peptide, whereas uncleaved, phosphorylated FRET-peptides maintain FRET. A ratiometric method, which calculates the ratio (Emission Ratio=Coumarin emission (445 nm)/Fluorescein emission (520 nm)) of donor emission to acceptor emission after excitation of the donor fluorophore at 400 nm, is used to quantitate reaction progress, as shown in the equation below. A significant benefit of this ratiometric method for quantitating reaction progress is the elimination of well-to-well variations in FRET-peptide concentration and signal intensities. As a result, the assay yields very high Z′-factor values (>0.7) at a low percent phosphorylation. Both cleaved and uncleaved FRET-peptides contribute to the fluorescence signals and therefore to the Emission Ratio. The extent of phosphorylation of the FRET-peptide can be calculated from the Emission Ratio. The Emission Ratio will remain low if the FRET-peptide is phosphorylated (i.e., no kinase inhibition) and will be high if the FRET-peptide is non-phosphorylated (i.e., kinase inhibition).
(§3) The Test Compounds are screened in 1% DMSO (final) in the well. For 10 point titrations, 3-fold serial dilutions are conducted from the starting concentration of the customer's choosing.
(§4) All Peptide/Kinase Mixtures are diluted to a 2× working concentration in the appropriate Kinase Buffer (see section Kinase Specific Assay Conditions for a complete description).
(§5) All ATP Solutions are diluted to a 4× working concentration in Kinase Buffer (50 mM HEPES pH 7.5, 0.01% BRIJ-35, 10 mM MgCl2, 1 mM EGTA). ATP Km apparent is previously determined using a Z″-LYTE assay.
(§6) The Development Reagent is diluted in Development Buffer (see section Kinase-Specific Assay Conditions—Direct and Cascade for a complete description).
(§7) Bar-coded Corning, low volume NBS, black 384-well plate (Corning Cat. #4514) • 1. 100 nL—100× Test Compound in 100% DMSO • 2. 2.4 μL—Kinase buffer • 3. 5 μL—2× Peptide/Kinase Mixture • 4. 2.5 μL—4×ATP Solution • 5. 30—second plate shake • 6. 60—minute Kinase Reaction incubation at room temperature • 7. 5 μL—Development Reagent Solution • 8. 30—second plate shake • 9. 60—minute Development Reaction incubation at room temperature • 10. Read on fluorescence plate reader and analyze the data Z′-LYTE Assay Controls
(§8) SelectScreen Kinase Profiling Service uses XLfit from IDBS. The dose response curve is curve fit to model number 205 (sigmoidal dose-response model).
(§9) The 2×ABL1/Tyr 02 mixture is prepared in 50 mM HEPES pH 7.5, 0.01% BRIJ-35, 10 mM MgCl2, 1 mM EGTA. The final 10 μL Kinase Reaction consists of 0.29-1.26 ng ABL1 and 2 μM Tyr 02 in 50 mM HEPES pH 7.5, 0.01% BRIJ-35, 10 mM MgCl2, 1 mM EGTA. After the 1 hour Kinase Reaction incubation, 5 μL of a 1:128 dilution of Development Reagent A is added.

FGFR2 = FGFR2 (Homo sapiens, UniProt P21802); experiment: Z'-LYTE SelectScreen biochemical kinase assay FGFR2
Description: as §1, §2, §3, §4, §5, §6, §7, §8
The 2×FGFR2/Tyr 04 mixture is prepared in 50 mM HEPES pH 7.5, 0.01% BRIJ-35, 10 mM MgCl2, 4 mM MnCl2, 1 mM EGTA, 2 mM DTT. The final 10 μL Kinase Reaction consists of 0.19-1.99 ng FGFR2 and 2 μM Tyr 04 in 50 mM HEPES pH 7.5, 0.01% BRIJ-35, 10 mM MgCl2, 2 mM MnCl2, 1 mM EGTA, 1 mM DTT. After the 1 hour Kinase Reaction incubation, 5 μL of a 1:64 dilution of Development Reagent B is added.

RET = RET (Homo sapiens, UniProt P07949); experiment: Z'-LYTE SelectScreen biochemical kinase assay RET
Description: as §1, §2, §3, §4, §5, §6, §7, §8
as §9, with “2×RET/Tyr” for “2×ABL1/Tyr”, “0.49-3.64” for “0.29-1.26”, “RET” for “ABL1”

[1] = Homo sapiens, H4 neuroglioma cells, same assay as table 4a, prior art compounds, Table 4b
[2] = 10 μmolar compound concentration, ATP at Km app, read-out: ABL1 inhibition
[3] = 10 μmolar compound concentration, ATP at Km app, read-out: FGFR2 inhibition
[4] = 10 μmolar compound concentration, ATP at Km app, read-out: RET inhibition
[5] = H4 neuroglioma cells expressing human APP695, 22 hours incubation, Table 4a
[6] = read-out: % Inhibition mean ABL1
[7] = read-out: % Inhibition mean FGFR2
[8] = read-out: % Inhibition mean RET

Sequence of RET (P07949 29-1114): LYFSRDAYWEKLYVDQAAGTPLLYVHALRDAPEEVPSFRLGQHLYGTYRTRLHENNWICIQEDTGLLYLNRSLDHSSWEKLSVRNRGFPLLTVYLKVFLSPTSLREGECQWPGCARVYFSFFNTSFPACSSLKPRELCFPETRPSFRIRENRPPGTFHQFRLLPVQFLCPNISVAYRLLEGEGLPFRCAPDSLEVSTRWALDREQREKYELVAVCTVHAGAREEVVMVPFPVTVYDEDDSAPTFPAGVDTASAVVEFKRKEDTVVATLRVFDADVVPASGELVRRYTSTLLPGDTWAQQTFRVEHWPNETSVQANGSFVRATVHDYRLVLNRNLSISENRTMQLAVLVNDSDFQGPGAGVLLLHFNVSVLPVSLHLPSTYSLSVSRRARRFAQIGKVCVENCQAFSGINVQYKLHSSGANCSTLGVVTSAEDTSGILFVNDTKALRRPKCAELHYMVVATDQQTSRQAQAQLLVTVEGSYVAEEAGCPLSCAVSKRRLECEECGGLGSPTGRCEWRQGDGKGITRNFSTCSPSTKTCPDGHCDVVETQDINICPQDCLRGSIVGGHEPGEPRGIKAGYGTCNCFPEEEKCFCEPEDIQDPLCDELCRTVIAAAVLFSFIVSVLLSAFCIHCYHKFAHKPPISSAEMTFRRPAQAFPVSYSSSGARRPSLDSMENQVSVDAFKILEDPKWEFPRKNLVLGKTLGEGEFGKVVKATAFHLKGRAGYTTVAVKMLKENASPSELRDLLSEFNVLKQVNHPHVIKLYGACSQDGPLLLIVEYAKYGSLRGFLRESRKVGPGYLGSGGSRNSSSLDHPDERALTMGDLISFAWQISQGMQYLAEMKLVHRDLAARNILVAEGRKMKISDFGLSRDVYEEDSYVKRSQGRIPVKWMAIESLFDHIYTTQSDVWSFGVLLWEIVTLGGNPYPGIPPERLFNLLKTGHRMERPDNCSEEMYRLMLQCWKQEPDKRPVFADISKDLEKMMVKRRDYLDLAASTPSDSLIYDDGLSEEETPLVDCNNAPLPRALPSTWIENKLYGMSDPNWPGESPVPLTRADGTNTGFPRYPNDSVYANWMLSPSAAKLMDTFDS
Sequence of ABL1 (P00519 whole entry): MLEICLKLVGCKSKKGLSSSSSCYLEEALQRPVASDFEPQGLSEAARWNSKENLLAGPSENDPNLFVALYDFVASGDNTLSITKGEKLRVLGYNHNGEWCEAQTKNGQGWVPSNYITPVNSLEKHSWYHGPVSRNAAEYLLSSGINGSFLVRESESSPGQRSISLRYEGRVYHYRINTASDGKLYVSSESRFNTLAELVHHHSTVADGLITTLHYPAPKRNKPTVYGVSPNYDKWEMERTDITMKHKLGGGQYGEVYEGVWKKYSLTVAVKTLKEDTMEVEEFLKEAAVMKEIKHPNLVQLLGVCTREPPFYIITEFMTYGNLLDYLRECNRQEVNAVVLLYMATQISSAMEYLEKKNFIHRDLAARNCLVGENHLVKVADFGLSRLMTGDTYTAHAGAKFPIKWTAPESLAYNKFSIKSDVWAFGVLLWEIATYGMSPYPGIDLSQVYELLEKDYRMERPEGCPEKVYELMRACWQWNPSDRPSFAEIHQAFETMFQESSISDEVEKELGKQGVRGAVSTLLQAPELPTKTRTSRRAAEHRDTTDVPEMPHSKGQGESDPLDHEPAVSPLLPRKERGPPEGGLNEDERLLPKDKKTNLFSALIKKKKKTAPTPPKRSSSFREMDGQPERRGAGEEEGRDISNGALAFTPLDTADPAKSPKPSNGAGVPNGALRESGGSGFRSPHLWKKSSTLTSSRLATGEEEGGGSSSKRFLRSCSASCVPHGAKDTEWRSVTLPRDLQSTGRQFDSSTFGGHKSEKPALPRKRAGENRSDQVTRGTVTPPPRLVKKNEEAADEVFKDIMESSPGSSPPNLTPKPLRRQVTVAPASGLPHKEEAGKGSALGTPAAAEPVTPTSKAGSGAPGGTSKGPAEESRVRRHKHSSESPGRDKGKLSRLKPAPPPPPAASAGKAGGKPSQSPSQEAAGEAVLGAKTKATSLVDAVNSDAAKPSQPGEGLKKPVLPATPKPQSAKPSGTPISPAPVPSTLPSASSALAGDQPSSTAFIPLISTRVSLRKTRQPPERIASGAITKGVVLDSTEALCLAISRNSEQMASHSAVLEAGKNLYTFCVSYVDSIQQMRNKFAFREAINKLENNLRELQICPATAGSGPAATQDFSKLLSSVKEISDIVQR
Sequence of FGFR2 (P21802 22-821): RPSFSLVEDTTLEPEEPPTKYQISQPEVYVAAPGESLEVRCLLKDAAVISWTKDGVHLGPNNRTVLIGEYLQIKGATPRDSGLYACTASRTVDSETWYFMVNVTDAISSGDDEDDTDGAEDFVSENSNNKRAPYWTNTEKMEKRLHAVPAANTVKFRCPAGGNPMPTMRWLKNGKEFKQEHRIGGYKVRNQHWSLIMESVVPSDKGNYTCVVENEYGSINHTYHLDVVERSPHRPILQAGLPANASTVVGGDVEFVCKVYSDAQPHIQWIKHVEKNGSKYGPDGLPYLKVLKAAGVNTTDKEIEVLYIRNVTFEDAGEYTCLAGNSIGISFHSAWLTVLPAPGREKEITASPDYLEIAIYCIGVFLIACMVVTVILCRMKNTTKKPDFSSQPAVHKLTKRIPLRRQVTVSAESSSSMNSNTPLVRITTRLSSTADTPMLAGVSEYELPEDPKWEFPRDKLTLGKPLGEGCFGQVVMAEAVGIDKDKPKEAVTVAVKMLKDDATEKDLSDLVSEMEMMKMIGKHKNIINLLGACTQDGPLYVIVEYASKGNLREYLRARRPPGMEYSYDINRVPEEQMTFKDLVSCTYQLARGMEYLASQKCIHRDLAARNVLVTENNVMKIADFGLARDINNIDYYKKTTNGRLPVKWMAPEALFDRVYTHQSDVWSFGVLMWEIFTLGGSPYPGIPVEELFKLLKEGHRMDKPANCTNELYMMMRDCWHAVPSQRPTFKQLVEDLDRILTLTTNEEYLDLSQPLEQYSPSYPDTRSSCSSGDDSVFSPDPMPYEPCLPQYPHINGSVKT

Row | SMILES | IC50 (Aβ42 production; [1]) [nM] | inhibition at 10 µM (ABL1; [2]) [%] | inhibition at 10 µM (ABL1; read-out: % Inhibition mean) [%] | inhibition at 10 µM (FGFR2; [3]) [%] | inhibition at 10 µM (FGFR2; read-out: % Inhibition mean) [%] | inhibition at 10 µM (RET; [4]) [%] | inhibition at 10 µM (RET; read-out: % Inhibition mean) [%] | IC50 (Aβ42 production; [5]) [nM] | inhibition at 10 µM (ABL1; [6]) [%] | inhibition at 10 µM (FGFR2; [7]) [%] | inhibition at 10 µM (RET; [8]) [%] | modulation of γ-secretase (in words) (Aβ42 production)
1 | CC1(C)C(=O)Nc2ccc(Nc3nc4c(-c5cccc(F)c5)cccn4n3)cc21 [Cpd. 263 in WO09155551, reference compound] | 6000 | > 80 | 99 | > 80 | 102 | > 80 | 96 |  |  |  |  | rather poor modulation
2 | Fc1cccc(-c2cccn3nc(Nc4ccc5[nH]cnc5c4)nc23)c1 [Cpd. 293 in WO09155551, reference compound] | 7000 | > 80 | 97 | > 80 | 90 | > 80 | 94 |  |  |  |  | do not show any modulation
3 | CCn1ncc2c1CCC(Nc1nc3c(-c4cnccc4OC)cccn3n1)C2 (centres unmarked) [Example 68, (1-Ethyl-4,5,6,7-tetrahydro-1H-indazol-5-yl)-[8-(4-methoxy-pyridin-3-yl)-[1,2,4]triazolo[1,5-a]pyridine-2-yl]-amine] |  | < 40 |  | < 40 |  | < 40 |  | 120 | 28 | 28 | 28 | 
4 | CCn1ncc2c1CC[C@H](Nc1nc3c(-c4ccc(F)c(Cl)c4)cccn3n1)C2 [Example S-61, (S)-[8-(3-Chloro-4-fluoro-phenyl)-[1,2,4]triazolo[1,5-a]pyridine-2-yl]-(1-ethyl-4,5,6,7-tetrahydro-1H-indazol-5-yl)-amine] |  | < 40 |  | < 40 |  | < 40 |  | 194 | 13 | 13 | 23 | 
5 | CCCn1ncc2c1CCC(Nc1nc3c(-c4ccc(F)cc4C)cccn3n1)C2 (centres unmarked) [Example 43, [8-(4-fluoro-2-methyl-phenyl)-[1,2,4]triazolo[1,5-a]pyridine-2-yl]-(1-propyl-4,5,6,7-tetrahydro-1H-indazol-5-yl)-amine] |  | < 40 |  | < 40 |  | < 40 |  | 60 | 17 | 14 | 26 | 
6 | CCn1ncc2c1CCC(Nc1nc3c(-c4cccc(Cl)c4)cccn3n1)C2 (centres unmarked) [Example 59, [8-(3-Chloro-phenyl)-[1,2,4]triazolo[1,5-a]pyridine-2-yl]-(1-ethyl-4,5,6,7-tetrahydro-1H-indazol-5-yl)-amine] |  | < 40 |  | < 40 |  | < 40 |  | 40 | 19 | 11 | 29 | 
7 | CCn1ncc2c1CCC(Nc1nc3c(-c4cncc(OC)c4)cccn3n1)C2 (centres unmarked) [Example 70, (1-Ethyl-4,5,6,7-tetrahydro-1H-indazol-5-yl)-[8-(5-methoxy-pyridin-3-yl)-[1,2,4]triazolo[1,5-a]pyridine-2-yl]-amine] |  | < 40 |  | < 40 |  | < 40 |  | 200 | 15 | 12 | 32 | 
8 | Cc1cc(F)ccc1-c1cccn2nc(NC3CCc4c(cnn4C)C3)nc12 (centres unmarked) [Example 10, [8-(4-fluoro-2-methyl-phenyl)-[1,2,4]triazolo[1,5-a]pyridine-2-yl]-(1-methyl-4,5,6,7-tetrahydro-1H-indazol-5-yl)-amine] |  | < 40 |  | < 40 |  | < 40 |  | 380 | 1 | 14 | 18 | 

More lines, main results first:

Row | IC50 (Aβ42 production; [1]) [nM] | inhibition at 10 µM (ABL1; [2]) [%] | inhibition at 10 µM (ABL1; read-out: % Inhibition mean) [%] | inhibition at 10 µM (FGFR2; [3]) [%] | inhibition at 10 µM (FGFR2; read-out: % Inhibition mean) [%] | inhibition at 10 µM (RET; [4]) [%] | inhibition at 10 µM (RET; read-out: % Inhibition mean) [%] | IC50 (Aβ42 production; [5]) [nM] | inhibition at 10 µM (ABL1; [6]) [%] | inhibition at 10 µM (FGFR2; [7]) [%] | inhibition at 10 µM (RET; [8]) [%] | SMILES | modulation of γ-secretase (in words) (Aβ42 production)
9 |  | < 40 |  | < 40 |  | < 40 |  | > 30000 | 9 | 17 | 18 | Cc1cc(F)ccc1-c1cccn2nc(NC3CCc4cnn(C)c4C3)nc12 (centres unmarked) [Example 40, [8-(4-Fluoro-2-methyl-phenyl)-[1,2,4]triazolo[1,5-a]pyridine-2-yl]-(1-methyl-4,5,6,7-tetrahydro-1H-indazol-6-yl)-amine] | 
10 |  | < 40 |  | < 40 |  | < 40 |  | 430 | 13 | 22 | 20 | Cc1cc(F)ccc1-c1cccn2nc(NC3CCc4c(cnn4C(C)C)C3)nc12 (centres unmarked) [Example 44, [8-(4-fluoro-2-methyl-phenyl)-[1,2,4]triazolo[1,5-a]pyridine-2-yl]-(1-isopropyl-4,5,6,7-tetrahydro-1H-indazol-5-yl)-amine] | 
11 |  | < 40 |  | < 40 |  | 40 to 80 |  | 40 | 21 | 26 | 62 | CCn1ncc2c1CCC(Nc1nc3c(-c4cncc(Cl)c4)cccn3n1)C2 (centres unmarked) [Example 73, [8-(5-Chloro-pyridin-3-yl)-[1,2,4]triazolo[1,5-a]pyridine-2-yl]-(1-ethyl-4,5,6,7-tetrahydro-1H-indazol-5-yl)-amine] | 
12 |  | < 40 |  | < 40 |  | < 40 |  | 3400 | 24 | 16 | 30 | Cc1cc(F)ccc1-c1cccn2nc(NC3CCc4c(cnn4CC(C)C)C3)nc12 (centres unmarked) [Example 45, [8-(4-fluoro-2-methyl-phenyl)-[1,2,4]triazolo[1,5-a]pyridine-2-yl]-(1-isobutyl-4,5,6,7-tetrahydro-1H-indazol-5-yl)-amine] | 
